Laboratory results from patent US8846933B2, “N-link hydroxamic acid derivatives useful as antibacterial agents” (Pfizer Inc., priority 2009, dated 2014).

Assays:
[1] = tested on: Escherichia coli EC-1: VOGEL, mouse virulent; assay: MIC determination (CLSI), strain EC-1; type: cell-based; conditions: strain EC-1; unit assumed
Procedure, shortened: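 The mouse-virulent VOGEL isolate of E. coli, EC-1, served as test organism. Minimum inhibitory concentration was measured by CLSI dilution methodology (M7-A7; M100-S18 standards).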

[2] = tested on: Pseudomonas aeruginosa UI-18: Wild-type (PA-7); assay: MIC determination (CLSI), strain PA-7; type: cell-based; conditions: strain PA-7; unit assumed
Procedure, shortened: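 Strain tested was P. aeruginosa UI-18, a wild-type isolate labelled PA-7. Minimum inhibitory concentrations followed CLSI dilution methodology for aerobically growing bacteria (M7-A7, M100-S18).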

For `CC(CCn1ccc(-c2ccc3cc(O)ccc3c2)cc1=O)(C(=O)NO)S(C)(=O)=O` (centres unmarked) [Example 258, N-hydroxy-4-[4-(6-hydroxy-2-naphthyl)-2-oxopyridin-1(2H)-yl]-2-methyl-2-(methylsulfonyl)butanamide], the EC-1 (MIC) [1] was 1 µg/mL and the PA-7 (MIC) [2] was 2 µg/mL.
`CC(CCn1ccc(-c2ccc3cnccc3c2)cc1=O)(C(=O)NO)S(C)(=O)=O` (centres unmarked) [Example 260, N-hydroxy-4-(4-isoquinolin-6-yl-2-oxopyridin-1(2H)-yl)-2-methyl-2-(methylsulfonyl)butanamide] gave an EC-1 (MIC) [1] of 4 µg/mL and a PA-7 (MIC) [2] of 4 µg/mL.
`CC(CCn1ccc(-c2ccc3ccncc3c2)cc1=O)(C(=O)NO)S(C)(=O)=O` (centres unmarked) [Example 261, N-hydroxy-4-(4-isoquinolin-7-yl-2-oxopyridin-1(2H)-yl)-2-methyl-2-(methylsulfonyl)butanamide] showed an EC-1 (MIC) [1] of 8 µg/mL and a PA-7 (MIC) [2] of 4 µg/mL.
With `CC(C)(O)Cc1cccc(-c2ccn(CCC(C)(C(=O)NO)S(C)(=O)=O)c(=O)c2)c1` (centres unmarked) [Example 262, N-hydroxy-4-{4-[3-(2-hydroxy-2-methylpropyl)phenyl]-2-oxopyridin-1(2H)-yl}-2-methyl-2-(methylsulfonyl)butanamide] the EC-1 (MIC) [1] was 64 µg/mL and the PA-7 (MIC) [2] was over 64 µg/mL.
`CC(CCn1ccc(-c2ccc3[nH]cc(CCO)c3c2)cc1=O)(C(=O)NO)S(C)(=O)=O` (centres unmarked) [Example 263, N-hydroxy-4-{4-[3-(2-hydroxyethyl)-1H-indol-5-yl]-2-oxopyridin-1(2H)-yl}-2-methyl-2-(methylsulfonyl)butanamide] gave an EC-1 (MIC) [1] of 8 µg/mL and a PA-7 (MIC) [2] of over 64 µg/mL.
`Cc1cccc(-c2ccn(CCC(C)(C(=O)NO)S(C)(=O)=O)c(=O)c2)c1F` (centres unmarked) [Example 264, 4-[4-(2-fluoro-3-methylphenyl)-2-oxopyridin-1(2H)-yl]-N-hydroxy-2-methyl-2-(methylsulfonyl)butanamide] gave an EC-1 (MIC) [1] of 0.5 µg/mL and a PA-7 (MIC) [2] of 0.5 µg/mL.
`CC(CCn1ccc(-c2ccc3c(ccn3CCO)c2)cc1=O)(C(=O)NO)S(C)(=O)=O` (centres unmarked) [Example 265, N-hydroxy-4-{4-[1-(2-hydroxyethyl)-1H-indol-5-yl]-2-oxopyridin-1(2H)-yl}-2-methyl-2-(methylsulfonyl)butanamide] gave an EC-1 (MIC) [1] of 4 µg/mL and a PA-7 (MIC) [2] of 16 µg/mL.
`Cc1c(Cl)cccc1-c1ccn(CCC(C)(C(=O)NO)S(C)(=O)=O)c(=O)c1` (centres unmarked) [Example 266, 4-[4-(3-chloro-2-methylphenyl)-2-oxopyridin-1(2H)-yl]-N-hydroxy-2-methyl-2-(methylsulfonyl)butanamide] was tested, and the EC-1 (MIC) [1] was 4 µg/mL and the PA-7 (MIC) [2] was 4 µg/mL.
Work on `CC(CCn1ccc(-c2ccc3c(ccn3CCCO)c2)cc1=O)(C(=O)NO)S(C)(=O)=O` (centres unmarked) [Example 267, N-hydroxy-4-{4-[1-(3-hydroxypropyl)-1H-indol-5-yl]-2-oxopyridin-1(2H)-yl}-2-methyl-2-(methylsulfonyl)butanamide] yielded an EC-1 (MIC) [1] of 2 µg/mL and a PA-7 (MIC) [2] of 8 µg/mL.
For `CC(CCn1ccc(-c2ccc(OCc3ccncc3)cc2)cc1=O)(C(=O)NO)S(C)(=O)=O` (centres unmarked) [Example 268, N-hydroxy-2-methyl-2-(methylsulfonyl)-4-{2-oxo-4-[4-(pyridin-4-ylmethoxy)phenyl]pyridin-1(2H)-yl}butanamide], the EC-1 (MIC) [1] was 1 µg/mL and the PA-7 (MIC) [2] was 2 µg/mL.
Molecule `CC(CCn1ccc(-c2ccc(OCc3cccnc3)cc2)cc1=O)(C(=O)NO)S(C)(=O)=O` (centres unmarked) [Example 269, N-hydroxy-2-methyl-2-(methylsulfonyl)-4-{2-oxo-4-[4-(pyridin-3-ylmethoxy)phenyl]pyridin-1(2H)-yl}butanamide] has an EC-1 (MIC) [1] of 0.5 µg/mL and a PA-7 (MIC) [2] of 2 µg/mL.
`CC(CCn1ccc(-c2ccc(OCc3ccccn3)cc2)cc1=O)(C(=O)NO)S(C)(=O)=O` (centres unmarked) [Example 270, N-hydroxy-2-methyl-2-(methylsulfonyl)-4-{2-oxo-4-[4-(pyridin-2-ylmethoxy)phenyl]pyridin-1(2H)-yl}butanamide] was tested, and the EC-1 (MIC) [1] was 1 µg/mL and the PA-7 (MIC) [2] was 2 µg/mL.
With `CC(CCn1ccc(-c2ccc(OCCc3cccnc3)cc2)cc1=O)(C(=O)NO)S(C)(=O)=O` (centres unmarked) [Example 271, N-hydroxy-2-methyl-2-(methylsulfonyl)-4-{2-oxo-4-[4-(2-pyridin-3-ylethoxy)phenyl]pyridin-1(2H)-yl}butanamide] the EC-1 (MIC) [1] was 0.25 µg/mL and the PA-7 (MIC) [2] was 2 µg/mL.
`CC(CCn1ccc(-c2ccc(OCCc3ccccn3)cc2)cc1=O)(C(=O)NO)S(C)(=O)=O` (centres unmarked) [Example 272, N-hydroxy-2-methyl-2-(methylsulfonyl)-4-{2-oxo-4-[4-(2-pyridin-2-ylethoxy)phenyl]pyridin-1(2H)-yl}butanamide] showed an EC-1 (MIC) [1] of 0.5 µg/mL and a PA-7 (MIC) [2] of 2 µg/mL.
`CC(CCn1ccc(-c2ccc3cc(OCCO)ccc3c2)cc1=O)(C(=O)NO)S(C)(=O)=O` (centres unmarked) [Example 273, N-hydroxy-4-{4-[6-(2-hydroxyethoxy)-2-naphthyl]-2-oxopyridin-1(2H)-yl}-2-methyl-2-(methylsulfonyl)butanamide] was tested, and the EC-1 (MIC) [1] was 0.5 µg/mL and the PA-7 (MIC) [2] was 4 µg/mL.
Molecule `CC(CCn1ccc(-c2ccc3cc(OCCCO)ccc3c2)cc1=O)(C(=O)NO)S(C)(=O)=O` (centres unmarked) [Example 274, N-hydroxy-4-{4-[6-(3-hydroxypropoxy)-2-naphthyl]-2-oxopyridin-1(2H)-yl}-2-methyl-2-(methylsulfonyl)butanamide] has an EC-1 (MIC) [1] of 0.25 µg/mL and a PA-7 (MIC) [2] of 2 µg/mL.
Molecule `CC(CCn1ccc(-c2ccc(OCCCCS(N)(=O)=O)cc2Cl)cc1=O)(C(=O)NO)S(C)(=O)=O` (centres unmarked) [Example 276, 4-[4-{4-[4-(aminosulfonyl)butoxy]-2-chlorophenyl}-2-oxopyridin-1(2H)-yl]-N-hydroxy-2-methyl-2-(methylsulfonyl)butanamide] has an EC-1 (MIC) [1] of 16 µg/mL and a PA-7 (MIC) [2] of 32 µg/mL.
For `CC(CCn1ccc(-c2ccc(OCCCCCN3CCOCC3)cc2)cc1=O)(C(=O)NO)S(C)(=O)=O` (centres unmarked) [Example 277, N-hydroxy-2-methyl-2-(methylsulfonyl)-4-[4-{4-[(5-morpholin-4-ylpentyl)oxy]phenyl}-2-oxopyridin-1(2H)-yl]butanamide], the EC-1 (MIC) [1] was 1 µg/mL and the PA-7 (MIC) [2] was 4 µg/mL.
With `CC(CCn1ccc(-c2ccc(-c3ccc(S(N)(=O)=O)cc3)cc2)cc1=O)(C(=O)NO)S(C)(=O)=O` (centres unmarked) [Example 278, 4-{4-[4′-(aminosulfonyl)biphenyl-4-yl]-2-oxopyridin-1(2H)-yl}-N-hydroxy-2-methyl-2-(methylsulfonyl)butanamide] the EC-1 (MIC) [1] was 2 µg/mL and the PA-7 (MIC) [2] was 16 µg/mL.
`C[C@@](CCn1ccc(-c2ccc(OCCCCO)cc2)cc1=O)(C(=O)NO)S(C)(=O)=O` [Example 279, (2R)-N-hydroxy-4-{4-[4-(4-hydroxybutoxy)phenyl]-2-oxopyridin-1(2H)-yl}-2-methyl-2-(methylsulfonyl)butanamide] was tested, and the EC-1 (MIC) [1] was 0.5 µg/mL and the PA-7 (MIC) [2] was 1 µg/mL.
`C[C@@](CCn1ccc(-c2ccc(OCCCCCO)cc2)cc1=O)(C(=O)NO)S(C)(=O)=O` [Example 280, (2R)-N-hydroxy-4-[4-{4-[(5-hydroxypentyl)oxy]phenyl}-2-oxopyridin-1(2H)-yl]-2-methyl-2-(methylsulfonyl)butanamide] showed an EC-1 (MIC) [1] of 0.25 µg/mL and a PA-7 (MIC) [2] of 0.5 µg/mL.
`CC(CCn1ccc(-c2ccc(-c3ccc(F)cc3)nc2)cc1=O)(C(=O)NO)S(C)(=O)=O` (centres unmarked) [Example 281, 4-[6-(4-fluorophenyl)-2′-oxo-3,4′-bipyridin-1′(2′H)-yl]-N-hydroxy-2-methyl-2-(methylsulfonyl)butanamide] showed an EC-1 (MIC) [1] of 0.5 µg/mL and a PA-7 (MIC) [2] of 8 µg/mL.
